Test results from patent US20150125542A1, “TIE2 Activator, Vascular Endothelial Growth Factor (VEGF) Inhibitor, Angiogenesis Inhibitor, Vascular Maturing Agent, Vascular Normalizing Agent and Vascular Stabilizing Agent, and Pharmaceutical Composition” (Maruzen Pharmaceuticals Co., Ltd., priority 2010, published 2015).
Each block holds one molecule with its values, some of them ahead of it.

How the values were obtained:
[1] = system: human normal umbilical vein vascular endothelial cells co-cultured with human normal dermal fibroblasts; assay: Angiogenesis inhibitory effect test (angiogenesis kit, number of luminal branching, VEGF-A); format: cell-based; settings: VEGF-A (+) 10 ng/mL
Description: The pharmacological effect, i.e., angiogenesis inhibitory effect of the hawthorn extract was evaluated by measuring a decrease of the number of vascular branching by means of image analysis as follows. At first, human normal umbilical vein vascular endothelial cells were co-cultured with human normal dermal fibroblasts at a constant ratio using the angiogenesis kit (product of KURABO INDUSTRIES LTD.) to a proliferative state at the early stage of lumen formation. The test sample, the hawthorn extract (fruits) (HAWTHORN EXTRACT POWDER MF, product of MARUZEN PHARMACEUTICALS CO., LTD.), was added to media so as to have concentrations described in Table 2 in the presence of 10 ng/mL of vascular endothelial cell growth factor-A (VEGF-A) (product of KURABO INDUSTRIES LTD.), followed by incubation at 37° C. and 5% CO2. […] The CD31 (PECAM-1) in HUVEC cells was stained with the lumen staining kit (CD31, product of KURABO INDUSTRIES LTD.) The stained cells in the wells were photographed and counted for the number of luminal branching. Based on the thus-obtained number of luminal branching, the angiogenesis inhibitory effect was evaluated.

[2] = biological target: T1, Tie2 (Homo sapiens, UniProt Q02763); assay: Tie2 activating effect (immunoassay) test in HUVECs; format: cell-based
T1 construct: endogenous in cells; host or cells: HUVEC (human umbilical vein endothelial cells)
T1 sequence (Q02763 23-1124): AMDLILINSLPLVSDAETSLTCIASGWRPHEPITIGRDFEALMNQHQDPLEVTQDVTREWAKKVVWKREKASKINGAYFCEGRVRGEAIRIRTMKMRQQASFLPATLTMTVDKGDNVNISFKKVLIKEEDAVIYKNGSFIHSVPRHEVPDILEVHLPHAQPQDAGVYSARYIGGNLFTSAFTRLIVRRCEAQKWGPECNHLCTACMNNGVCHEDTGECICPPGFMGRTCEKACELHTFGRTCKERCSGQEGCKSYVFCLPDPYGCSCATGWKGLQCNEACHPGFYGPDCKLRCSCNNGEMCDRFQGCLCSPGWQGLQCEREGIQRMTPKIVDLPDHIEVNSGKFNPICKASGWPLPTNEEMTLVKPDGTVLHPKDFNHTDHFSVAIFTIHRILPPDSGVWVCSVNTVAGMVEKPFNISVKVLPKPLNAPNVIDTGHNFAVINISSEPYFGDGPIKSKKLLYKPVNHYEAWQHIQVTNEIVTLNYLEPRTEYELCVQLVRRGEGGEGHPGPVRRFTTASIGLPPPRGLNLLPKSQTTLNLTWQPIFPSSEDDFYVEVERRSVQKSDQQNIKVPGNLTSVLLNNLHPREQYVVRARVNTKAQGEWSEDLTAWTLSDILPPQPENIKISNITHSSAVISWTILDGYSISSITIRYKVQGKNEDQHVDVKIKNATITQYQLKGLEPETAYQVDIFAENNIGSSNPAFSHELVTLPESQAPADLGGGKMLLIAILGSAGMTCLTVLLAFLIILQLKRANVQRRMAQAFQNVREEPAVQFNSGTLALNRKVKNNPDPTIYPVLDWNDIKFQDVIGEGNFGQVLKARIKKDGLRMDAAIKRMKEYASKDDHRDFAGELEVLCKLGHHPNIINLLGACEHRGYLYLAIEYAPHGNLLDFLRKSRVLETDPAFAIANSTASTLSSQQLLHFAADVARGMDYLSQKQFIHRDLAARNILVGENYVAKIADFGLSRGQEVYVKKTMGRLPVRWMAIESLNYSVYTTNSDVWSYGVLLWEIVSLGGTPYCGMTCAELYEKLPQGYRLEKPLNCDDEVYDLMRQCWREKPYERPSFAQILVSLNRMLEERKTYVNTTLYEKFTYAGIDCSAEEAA
Description: The pharmacological effect of the hawthorn extract was evaluated by detecting the amount of phosphorylated Tie2 protein. The phosphorylated Tie2 protein was quantified by means of an immunochemical method including an immunoassay. The method was performed as follows.
At first, normal human umbilical vein endothelial cells (HUVECs) were cultured to confluent, inoculated into a 96-well plate at 2.0×10^4 cells/0.1 mL/well, and then cultured over night in a low-serum growth medium for vascular endothelial cells (HUMEDIA-EG2, product of KURABO INDUSTRIES LTD.) Next, the low-serum growth medium was replaced by 0.1 mL of a basal medium for vascular endothelial cells (HUMEDIA-EB2, product of KURABO INDUSTRIES LTD.) at 3 hours before cell stimulation (addition of test samples), and the post-cultured HUVECs were again cultured therein. […] After completion of the incubation, the amount of phosphorylated Tie2 and the total amount of Tie2 in the cells were measured by the immunoassay kit (HUMAN PHOSPHO-TIE2 (Y992) IMMUNOASSAY, product of R&D Systems) according to a manufacturer's protocol to thereby calculate the ratio of the amount of phosphorylated Tie2 to the total amount of Tie2.
Similarly, the ratio of the amount of phosphorylated Tie2 to the total amount of Tie2 was calculated in the case of using dimethyl sulfoxide (DMSO) as a negative control. […]

Molecule: Cc1ccc(C(=O)Nc2ccc(S(=O)(=O)O)c3cc(S(=O)(=O)O)cc(S(=O)(=O)O)c23)cc1NC(=O)c1cccc(NC(=O)Nc2cccc(C(=O)Nc3cc(C(=O)Nc4ccc(S(=O)(=O)O)c5cc(S(=O)(=O)O)cc(S(=O)(=O)O)c45)ccc3C)c2)c1 [Suramin]
- Number of vascular branching ([1]; 50 μM, Means ± S.E., n = 3): 30.0 ± 4.0
- inhibition at 50 µM ([1]; Homo sapiens, read-out: Angiogenesis inhibitory rate (%)): 70.8%

- Activation rate of Tie2 (%) ([2]; 0.5 μg/mL, 10 min, negative control DMSO = 100, Means ± S.E., n = 4): 130.2 ± 8.3 %
B1: Angiopoietin-1: Angiopoietin-1 (product of R&D Systems, Inc.) as a positive control (protein, UniProt Q15389 16-498, looked up)
Angiopoietin-1: HIGCSNQRRSPENSGRRYNRIQHGQCAYTFILPEHDGNCRESTTDQYNTNALQRDAPHVEPDFSSQKLQHLEHVMENYTQWLQKLENYIVENMKSEMAQIQQNAVQNHTATMLEIGTSLLSQTAEQTRKLTDVETQVLNQTSRLEIQLLENSLSTYKLEKQLLQQTNEILKIHEKNSLLEHKILEMEGKHKEELDTLKEEKENLQGLVTRQTYIIQELEKQLNRATTNNSVLQKQQLELMDTVHNLVNLCTKEGVLLKGGKREEEKPFRDCADVYQAGFNKSGIYTIYINNMPEPKKVFCNMDVNGGGWTVIQHREDGSLDFQRGWKEYKMGFGNPSGEYWLGNEFIFAITSQRQYMLRIELMDWEGNRAYSQYDRFHIGNEKQNYRLYLKGHTGTAGKQSSLILHGADFSTKDADNDNCMCKCALMLTGGWWFDACGPSNLNGMFYTAGQNHGKLNGIKWHYFKGPSYSLRSTTMMIRPLDF
- Tie2 activating effect (immunoassay), in words ([2]; immunoassay kit): verified to be phosphorylated and thus activated
